Assay results as given in PMC10788917 (Journal of Medicinal Chemistry, 2023).

Assays:
MOLM-13 cells = experiment: CellTiter-Blue cell viability assay; type: cell-based; conditions: Homo sapiens, 72 h, HDAC8-dependent line, Figure 7B
Protocol: (§1) All cell lines were purchased from DSMZ (Braunschweig, Germany). The cell lines were regularly tested to exclude mycoplasma contamination and authenticated. […] Media were supplemented with 10% fetal calf serum (FCS), 10 units/mL penicillin, 10 μg/mL streptomycin, and 2 mM L-glutamine (all Gibco, Thermo Fisher Scientific).
(§2) To determine the IC50 of the selected compounds on the cell lines, the CellTiter-Blue cell viability assay (Promega) was performed. For this, cells were seeded in 96-well flat-bottom plates at a cell density of 10 000 cells/well. Cells were treated in triplicate with the compound of interest at various concentrations or with 10 μM Bortezomib (S1013; Selleck Chemicals, Houston, TX), as a positive control. […] Plates were measured using a GloMax plate reader (Promega), and IC50 values were determined by nonlinear regression using GraphPad Prism version 9.1.1 (GraphPad Software, Inc.), and the data are reported as mean values ± the standard error of the mean.

HEL cells = experiment: CellTiter-Blue cell viability assay; type: cell-based; conditions: Homo sapiens, 72 h, HDAC8-independent line, Figure 7B
Protocol: as §1, §2

SET2 cells = experiment: CellTiter-Blue cell viability assay; type: cell-based; conditions: Homo sapiens, SET-2; 72 h, HDAC8-independent line, Figure 7B
Protocol: as §1, §2

OCI-AML3 cells = experiment: CellTiter-Blue cell viability assay; type: cell-based; conditions: Homo sapiens, OCI-AML-3; 72 h, HDAC8-dependent line, Figure 7B
Protocol: as §1, §2

SMC3 acetylation = experiment: Western blot (immunoblot) in OCI-AML3 cells; type: cell-based; conditions: 72 h treatment
Protocol: Cells (2 ×10^6) were seeded in 2 mL of medium in a six-well plate (Greiner) and treated with the desired concentration of the compounds. […] Protein concentrations were determined by the Bradford protein assay. Thirty micrograms of cell lysates per treatment was fractionated on sodium dodecyl sulfate–polyacrylamide gels and transferred to nitrocellulose membranes (Cytiva).

HL60 cells = experiment: CellTiter-Blue cell viability assay; type: cell-based; conditions: Homo sapiens, HL-60; 72 h, Figure 7A
Protocol: All cell lines were purchased from DSMZ (Braunschweig, Germany). The cell lines were regularly tested to exclude mycoplasma contamination and authenticated. Cell lines were grown at 37 °C and 5% CO2 in RPMI 1640 medium (Gibco, Thermo Fisher Scientific). Media were supplemented with 10% fetal calf serum (FCS), 10 units/mL penicillin, 10 μg/mL streptomycin, and 2 mM L-glutamine (all Gibco, Thermo Fisher Scientific).
To determine the IC50 of the selected compounds on the cell lines, the CellTiter-Blue cell viability assay (Promega) was performed. For this, cells were seeded in 96-well flat-bottom plates at a cell density of 10 000 cells/well. Cells were treated in triplicate with the compound of interest at various concentrations or with 10 μM Bortezomib (S1013; Selleck Chemicals, Houston, TX), as a positive control. The cell viability of treated cell lines was measured using CellTiter-Blue after incubation for 72 h. Plates were measured using a GloMax plate reader (Promega), and IC50 values were determined by nonlinear regression using GraphPad Prism version 9.1.1 (GraphPad Software, Inc.), and the data are reported as mean values ± the standard error of the mean.

HDAC8 Cys153Ser mutant = biological target: T1, HDAC8 Cys153Ser mutant (Homo sapiens, UniProt Q9BY41, C153S); experiment: HDAC8 mutant biochemical assay; conditions: preincubation 1 h
T1 construct: made in house
T1 sequence (Q9BY41 whole entry C153S): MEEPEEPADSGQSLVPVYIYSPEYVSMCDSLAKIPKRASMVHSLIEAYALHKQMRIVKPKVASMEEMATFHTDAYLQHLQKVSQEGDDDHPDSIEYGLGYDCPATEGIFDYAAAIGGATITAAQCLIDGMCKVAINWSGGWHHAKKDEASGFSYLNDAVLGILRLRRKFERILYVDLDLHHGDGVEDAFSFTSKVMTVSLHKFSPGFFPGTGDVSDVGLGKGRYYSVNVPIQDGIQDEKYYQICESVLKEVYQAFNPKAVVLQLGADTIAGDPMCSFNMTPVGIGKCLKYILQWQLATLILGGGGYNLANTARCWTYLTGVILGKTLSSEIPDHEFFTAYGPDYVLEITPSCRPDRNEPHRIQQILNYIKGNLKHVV

HDAC8 = biological target: T2, HDAC8 (Homo sapiens, UniProt Q9BY41); experiment: Kinetic parameters of inactivation from time-dependent IC50; type: biochemical
T2 construct: one additional N-terminal residue 'H' (His) (N)
T2 sequence (Q9BY41 1-377): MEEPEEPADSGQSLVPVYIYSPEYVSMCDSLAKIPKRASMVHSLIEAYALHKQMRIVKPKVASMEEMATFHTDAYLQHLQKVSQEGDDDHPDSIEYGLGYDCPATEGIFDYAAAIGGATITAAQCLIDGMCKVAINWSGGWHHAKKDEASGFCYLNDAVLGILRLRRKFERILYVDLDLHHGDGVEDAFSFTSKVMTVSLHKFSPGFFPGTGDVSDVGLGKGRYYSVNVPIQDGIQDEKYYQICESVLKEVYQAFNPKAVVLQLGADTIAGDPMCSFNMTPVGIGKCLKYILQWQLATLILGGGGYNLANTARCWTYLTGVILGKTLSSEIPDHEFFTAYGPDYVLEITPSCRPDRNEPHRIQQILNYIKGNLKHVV
Protocol: Time-dependent IC50 values were obtained using the previously described enzyme activity assay after varying preincubation times.

IC50 (MOLM-13 cells): 7.08 ± 1.07 µM
IC50 (OCI-AML3 cells): 27.2 ± 5.86 µM
IC50 (HL60 cells): 161 µM
IC50 (HDAC8 Cys153Ser mutant): 58.8 µM
kinact/KI (HDAC8; HDAC8): 1570 M⁻¹ s⁻¹
Ki (HDAC8; HDAC8, inactivation constant): 3.2 µM
kinact (HDAC8; HDAC8, time-dependent IC50, Krippendorff approach): 0.0051 s⁻¹
SMILES: C#Cc1c[n+](C)ccc1NC(=O)CC(=O)N1Cc2ccccc2C1.[I-] [compound 3, 3-Ethynyl-4-[3-(isoindolin-2-yl)-3-oxopropanamido]-1-methylpyridin-1-ium Iodide]
IC50 (HEL cells): > 200 µM
IC50 (SET2 cells): > 200 µM
concentration inducing an increased level of SMC3 acetylation (SMC3 acetylation): 10 µM
effect on HDAC8 levels (SMC3 acetylation): not influencing HDAC8 levels
